Assay results: article PMC7845594, “Novel Immune Modulators Enhance Caenorhabditis elegans Resistance to Multiple Pathogens” (mSphere, 2021)

Tested on: ESRE network
Assay: hsp-16.1p::GFP reporter (ESRE activation)
Assay type: in vivo, Caenorhabditis elegans
Conditions: 50 or 100 μM, no pathogen
Excerpt: Previous work from our lab has established that the ESRE network plays an important role in the resistance of C. elegans to pyoverdine, the main virulence determinant in liquid killing, and recent evidence has shown that ESRE activation depends on increased reactive oxygen species (ROS) ([23], [38], [39]). To evaluate ESRE activation, worms carrying an hsp-16.1p::GFP reporter (which contains two ESRE motifs and was previously used as an indicator of ESRE activation [[39][–][41]]), were exposed to 50 or 100 μM LK35, LK38, LK56, juglone (positive control), or DMSO. […] ROS level was assessed based on the fluorescence of dihydroethidium (DHE; a ROS-specific dye) using a COPAS FlowSort for flow vermimetry.
Young adult wild-type (A), hsp-4p::GFP (B), hsp-16.1p::GFP (C), or rpt-3::GFP (D) worms were incubated with LK molecules at 50 or 100 µM, DMSO control, or positive controls. For panel A, the worms were treated with compound for 10 h, and then the worms were stained with 4 µM DHE for 1 h before washing and fluorescence measurement. For panels B to D, the worms were treated with compound for 15 h prior to fluorescence measurement. Mean values from at least three biological replicates are shown. *, P < 0.05; **, P < 0.01; ***, P < 0.001 (compared to the solvent control). P values were calculated using Student’s t test. Error bars represent the standard error of the mean. […]

## O=c1cc(CNc2ccc(Br)cc2)nc2sccn12 [LK56]
  ESRE activation (hsp-16.1p::GFP): weak activation
